Test results published in the supplement of paper PMC11208160.

Test: recombinant UMI read abundance after kanamycin selection (control-corrected) (log10(CPM+1)); higher = more efficient recombination; extreme values may be limits of the assay; sequences stand for … in AGTGCAGAGAAAATCGGCCAGTTTTCTCTGCCTGCAGTCCGCATGCCGTGGGACCCCTTGGGTTCTAACCTGTTGCCTAGATTTATGCAGCGGACTGCCTTTCTCCCAAAGTGATAAACCGG…AGGTTGGTTTCACT; site = the 11-nt donor
Procedure, shortened: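 The measure is log10(CPM+1) for recombinant UMIs. These were PCR-amplified across the donor–target junction and sequenced after Escherichia coli carrying a donor and donor-binding-loop pair library and a target plasmid with T7-inducible IS621 bridge recombinase was plated on IPTG (0.07 mM) plus kanamycin or unselected. CPM were averaged over two replicates and scaled by control-derived factors.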
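Further: IS621 bridge recombinase in Escherichia coli cells against a fixed T5 target plasmid.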

| Sequence | recombinant UMI read abundance (log10) |
| --- | --- |
| TGGGAGTCATGGACCGGTTTTCCCGGTAATCCGTATTTGCC (site AGGGAGTCTGG) | 0 |
| TGGGAGTCATGGACCGGTTTTCCCGGTAATCCGTATTTGCC (site CGGGAGTCTGG) | 0 |
| TGGGAGTCATGGACCGGTTTTCCCGGTAATCCGTATTTGCC (site GGGGAGTCTGG) | 0.0303 |
| TGGGAGTCATGGACCGGTTTTCCCGGTAATCCGTATTTGCC (site TGGGAGTCTGG) | 2.34 |
| TGGGGACCATGGACCGGTTTTCCCGGTAATCCGTATTTGCG (site TGGGGACCTCG) | 0.00873 |
| TGGGGTACATGGACCGGTTTTCCCGGTAATCCGTATTTGGG (site TGGGGTACTCC) | 0.0151 |
| TGGGTACCATGGACCGGTTTTCCCGGTAATCCGTATTTGTT (site TGGGTACCTAA) | 0.0105 |
| TGGGTATCATGGACCGGTTTTCCCGGTAATCCGTATTTGCA (site TGGGTATCTTG) | 1.83 |
| TGGGTCCCATGGACCGGTTTTCCCGGTAATCCGTATTTGGT (site TGGGTCCCTAC) | 0.00844 |
| TGGTAGGCATGGACCGGTTTTCCCGGTAATCCGTATTTGGT (site TGATAGGCTAC) | 0.0183 |
| TGGTAGGCATGGACCGGTTTTCCCGGTAATCCGTATTTGGT (site TGCTAGGCTAC) | 0.00286 |
| TGGTAGGCATGGACCGGTTTTCCCGGTAATCCGTATTTGGT (site TGGTAGGCTAC) | 0.848 |
| TGGTAGGCATGGACCGGTTTTCCCGGTAATCCGTATTTGGT (site TGTTAGGCTAC) | 0.307 |
| TGGTGATCATGGACCGGTTTTCCCGGTAATCCGTATTTGGG (site TGGTGATCTCC) | 0.238 |
| TGGTGGACATGGACCGGTTTTCCCGGTAATCCGTATTTGTT (site TGGTGGACTAA) | 0.734 |
| TGGTTATCATGGACCGGTTTTCCCGGTAATCCGTATTTGGT (site TGGTTATCTAC) | 1.78 |
| TGGTTCGCATGGACCGGTTTTCCCGGTAATCCGTATTTGGA (site TGGTTCGCTTC) | 0.00761 |
| TGGTTTCCATGGACCGGTTTTCCCGGTAATCCGTATTTGCA (site TGGTTTCCTTG) | 0 |
| TGTAAGACATGGACCGGTTTTCCCGGTAATCCGTATTTGCG (site TGTAAGACTCG) | 0.934 |
| TGTAAGCCATGGACCGGTTTTCCCGGTAATCCGTATTTGAC (site TGTAAGCCTGT) | 0 |
| TGTACACCATGGACCGGTTTTCCCGGTAATCCGTATTTGCC (site TGTACACCTGA) | 0 |
| TGTACACCATGGACCGGTTTTCCCGGTAATCCGTATTTGCC (site TGTACACCTGC) | 0 |
| TGTACACCATGGACCGGTTTTCCCGGTAATCCGTATTTGCC (site TGTACACCTGG) | 0 |
| TGTACACCATGGACCGGTTTTCCCGGTAATCCGTATTTGCC (site TGTACACCTGT) | 0 |
| TGTACAGCATGGACCGGTTTTCCCGGTAATCCGTATTTGAA (site TGTACAGCTTT) | 0.369 |

| Sequence | recombinant UMI read abundance (log10) |
| --- | --- |
| TGTACCACATGGACCGGTTTTCCCGGTAATCCGTATTTGTA (site TGTACCACTTA) | 0.131 |
| TGTAGACCATGGACCGGTTTTCCCGGTAATCCGTATTTGAC (site TGTAAACCTGT) | 0 |
| TGTAGACCATGGACCGGTTTTCCCGGTAATCCGTATTTGAC (site TGTACACCTGT) | 0 |
| TGTAGACCATGGACCGGTTTTCCCGGTAATCCGTATTTGAC (site TGTAGACCTGT) | 0 |
| TGTAGACCATGGACCGGTTTTCCCGGTAATCCGTATTTGAC (site TGTATACCTGT) | 0 |
| TGTAGGTCATGGACCGGTTTTCCCGGTAATCCGTATTTGAA (site TGTAGGTCTTT) | 0.238 |
| TGTAGGTCATGGACCGGTTTTCCCGGTAATCCGTATTTGGT (site TGTAGGTCTAC) | 0.355 |
| TGTATACCATGGACCGGTTTTCCCGGTAATCCGTATTTGAC (site TGTAAACCTGT) | 0 |
| TGTATACCATGGACCGGTTTTCCCGGTAATCCGTATTTGAC (site TGTACACCTGT) | 0 |
| TGTATACCATGGACCGGTTTTCCCGGTAATCCGTATTTGAC (site TGTAGACCTGT) | 0 |
| TGTATACCATGGACCGGTTTTCCCGGTAATCCGTATTTGAC (site TGTATACCTGT) | 0 |
| TGTCAGCCATGGACCGGTTTTCCCGGTAATCCGTATTTGGC (site TGTCAGCCTGC) | 0.0152 |
| TGTCCACCATGGACCGGTTTTCCCGGTAATCCGTATTTGAC (site TGTACACCTGT) | 0 |
| TGTCCACCATGGACCGGTTTTCCCGGTAATCCGTATTTGAC (site TGTCCACCTGT) | 0 |
| TGTCCACCATGGACCGGTTTTCCCGGTAATCCGTATTTGAC (site TGTGCACCTGT) | 0 |
| TGTCCACCATGGACCGGTTTTCCCGGTAATCCGTATTTGAC (site TGTTCACCTGT) | 0 |
| TGTCCAGCATGGACCGGTTTTCCCGGTAATCCGTATTTGTG (site TGTCCAGCTCA) | 0.0483 |
| TGTCCTACATGGACCGGTTTTCCCGGTAATCCGTATTTGTG (site TGTCCTACTCA) | 0.266 |
| TGTCGTCCATGGACCGGTTTTCCCGGTAATCCGTATTTGAG (site TGTCGTCCTCT) | 0.0062 |
| TGTGACGCATGGACCGGTTTTCCCGGTAATCCGTATTTGTG (site TGTGACGCTCA) | 0.239 |
| TGTGATGCATGGACCGGTTTTCCCGGTAATCCGTATTTGAC (site TGTGATGCTGT) | 1.65 |
| TGTGCTGCATGGACCGGTTTTCCCGGTAATCCGTATTTGTA (site TGTGCTGCTTA) | 0.0197 |
| TGTGGCTCATGGACCGGTTTTCCCGGTAATCCGTATTTGCT (site TGTGGCTCTAG) | 1.33 |
| TGTGTGACATGGACCGGTTTTCCCGGTAATCCGTATTTGTC (site TGTGTGACTGA) | 0 |
| TGTTAACCATGGACCGGTTTTCCCGGTAATCCGTATTTGCT (site TGTTAACCTAG) | 0 |

| Sequence | recombinant UMI read abundance (log10) |
| --- | --- |
| TGTTCACCATGGACCGGTTTTCCCGGTAATCCGTATTTGTA (site TGTTCACCTTA) | 0.00651 |
| TGTTCACCATGGACCGGTTTTCCCGGTAATCCGTATTTGTA (site TGTTCCCCTTA) | 0.104 |
| TGTTCACCATGGACCGGTTTTCCCGGTAATCCGTATTTGTA (site TGTTCGCCTTA) | 0.00766 |
| TGTTCACCATGGACCGGTTTTCCCGGTAATCCGTATTTGTA (site TGTTCTCCTTA) | 0.00688 |
| TGTTCCCCATGGACCGGTTTTCCCGGTAATCCGTATTTGAA (site TGTTCCCCTTA) | 0.0134 |
| TGTTCCCCATGGACCGGTTTTCCCGGTAATCCGTATTTGAA (site TGTTCCCCTTC) | 0.011 |
| TGTTCCCCATGGACCGGTTTTCCCGGTAATCCGTATTTGAA (site TGTTCCCCTTG) | 0 |
| TGTTCCCCATGGACCGGTTTTCCCGGTAATCCGTATTTGAA (site TGTTCCCCTTT) | 0.0201 |
| TGTTCCCCATGGACCGGTTTTCCCGGTAATCCGTATTTGGA (site TGTTCCCCTTA) | 0.0182 |
| TGTTCCCCATGGACCGGTTTTCCCGGTAATCCGTATTTGGA (site TGTTCCCCTTC) | 0.128 |
| TGTTCCCCATGGACCGGTTTTCCCGGTAATCCGTATTTGGA (site TGTTCCCCTTG) | 0.00301 |
| TGTTCCCCATGGACCGGTTTTCCCGGTAATCCGTATTTGGA (site TGTTCCCCTTT) | 0.02 |
| TGTTCCCCATGGACCGGTTTTCCCGGTAATCCGTATTTGTC (site TGTTCCCCTAA) | 0.0126 |
| TGTTCCCCATGGACCGGTTTTCCCGGTAATCCGTATTTGTC (site TGTTCCCCTCA) | 0.00896 |
| TGTTCCCCATGGACCGGTTTTCCCGGTAATCCGTATTTGTC (site TGTTCCCCTGA) | 1.16 |
| TGTTCCCCATGGACCGGTTTTCCCGGTAATCCGTATTTGTC (site TGTTCCCCTTA) | 0.0152 |
| TGTTCCTCATGGACCGGTTTTCCCGGTAATCCGTATTTGTC (site TGTTCCTCTGA) | 0.553 |
| TGTTCGGCATGGACCGGTTTTCCCGGTAATCCGTATTTGAC (site TGTTCGGCTGT) | 0.323 |
| TGTTCTTCATGGACCGGTTTTCCCGGTAATCCGTATTTGCC (site TGTTCTTCTGG) | 1.21 |
| TGTTGATCATGGACCGGTTTTCCCGGTAATCCGTATTTGAG (site TGTTGATCTCT) | 1.22 |
| TGTTTGGCATGGACCGGTTTTCCCGGTAATCCGTATTTGTG (site TATTTGGCTCA) | 0.0286 |
| TGTTTGGCATGGACCGGTTTTCCCGGTAATCCGTATTTGTG (site TCTTTGGCTCA) | 0.00613 |
| TGTTTGGCATGGACCGGTTTTCCCGGTAATCCGTATTTGTG (site TGTTTGGCTCA) | 0.161 |
| TGTTTGGCATGGACCGGTTTTCCCGGTAATCCGTATTTGTG (site TTTTTGGCTCA) | 0.0036 |
| TTAAATCCATGGACCGGTTTTCCCGGTAATCCGTATTTGGT (site TTAAATCCTAC) | 0.0199 |
